{"source": "PubChem BioAssay AID1259410", "about": "(Chemical Carcinogenesis Research Information System (CCRIS), 2018)", "origin": "cited, not measured here", "test_system": "rodent tumor promotion studies, tumor incidence", "experiment": "CCRIS tumor promotion studies"}
{"compound": "O=C(O)c1cc(=O)[nH]c(=O)[nH]1", "values": [{"measurement": "outcome", "setting": "Carcinogen: 1,2-DIMETHYLHYDRAZINE DIHYDROCHLORIDE, 306-37-6, Doses [Carcinogen]: 100 MG/KG ONCE 18 HR AFTER 2/3 PARTIAL HEPATECTOMY, Doses [Promoter]: 0, 1% IN DIET FOR 10 WK BEGINNING 1 WK POST CARCINOGEN DOSE (STUDY DURATION: 54 WK), Route [Carcinogen]: INTRAPERITONEAL, Route [Promoter]: ORAL, Species: RAT, Strain/Sex: F344/MALE", "value": "liver: hepatocellular carcinoma"}, {"measurement": "outcome", "setting": "Carcinogen: 1,2-DIMETHYLHYDRAZINE DIHYDROCHLORIDE, 306-37-6, Doses [Carcinogen]: 100 MG/KG ONCE 18 HR AFTER 2/3 PARTIAL HEPATECTOMY, Doses [Promoter]: 0, 1% IN DIET FOR 20 WK BEGINNING 1 WK POST CARCINOGEN DOSE (STUDY DURATION: 54 WK), Route [Carcinogen]: INTRAPERITONEAL, Route [Promoter]: ORAL, Species: RAT, Strain/Sex: F344/MALE", "value": "liver: hepatocellular carcinoma"}, {"measurement": "outcome", "setting": "Carcinogen: 1,2-DIMETHYLHYDRAZINE DIHYDROCHLORIDE, 306-37-6, Doses [Carcinogen]: 100 MG/KG ONCE 18 HR AFTER 2/3 PARTIAL HEPATECTOMY, Doses [Promoter]: 0, 1% IN DIET FOR 29 WK BEGINNING 1 WK POST CARCINOGEN DOSE (STUDY DURATION: 54 WK), Route [Carcinogen]: INTRAPERITONEAL, Route [Promoter]: ORAL, Species: RAT, Strain/Sex: F344/MALE", "value": "liver: hepatocellular carcinoma"}, {"measurement": "outcome", "setting": "Carcinogen: 1,2-DIMETHYLHYDRAZINE DIHYDROCHLORIDE, 306-37-6, Doses [Carcinogen]: 100 MG/KG ONCE 18 HR AFTER 2/3 PARTIAL HEPATECTOMY, Doses [Promoter]: 0, 1% IN DIET FOR 40 WK BEGINNING 1 WK POST CARCINOGEN DOSE (STUDY DURATION: 54 WK), Route [Carcinogen]: INTRAPERITONEAL, Route [Promoter]: ORAL, Species: RAT, Strain/Sex: F344/MALE", "value": "liver: hepatocellular carcinoma"}, {"measurement": "outcome", "setting": "Carcinogen: 1,2-DIMETHYLHYDRAZINE DIHYDROCHLORIDE, Doses [Carcinogen]: 100 MG/KG ONCE, 18 HR AFTER PARTIAL HEPATECTOMY, Doses [Promoter]: 1% IN DIET FOR 10 OR 13 MO BEGINNING 1 WK AFTER INITIATION, Route [Carcinogen]: INTRAPERITONEAL, Route [Promoter]: ORAL, Species: RAT, Strain/Sex: F344/MALE", "value": "liver: hepatocellular carcinoma"}, {"measurement": "outcome", "setting": "Carcinogen: 1,2-DIMETHYLHYDRAZINE, 540-73-8, Doses [Carcinogen]: 100 MG/KG ONCE 18 HR AFTER TWO-THIRDS PARTIAL HEPATECTOMY, Doses [Promoter]: 0, 1% IN DIET BEGINNING 1 WK POST CARCINOGEN DOSE (STUDY DURATION: 54 WK), Route [Carcinogen]: INTRAPERITONEAL, Route [Promoter]: ORAL, Species: RAT, Strain/Sex: F344/MALE", "value": "liver: hepatocellular carcinoma"}, {"measurement": "outcome", "setting": "Carcinogen: DIETHYLNITROSAMINE, 55-18-5, Doses [Carcinogen]: 200 MG/KG BW ONCE, Doses [Promoter]: 0, 1% IN DIET FOR 4 WK BEGINNING 1 WK POST CARCINOGEN DOSE, PARTIAL HEPATECTOMY PERFORMED AT END OF SECOND WK (STUDY DUR, Route [Carcinogen]: INTRAPERITONEAL, Route [Promoter]: ORAL, Species: RAT, Strain/Sex: F344/MALE", "value": "liver: carcinoma"}, {"measurement": "outcome", "setting": "Carcinogen: DIETHYLNITROSAMINE, 55-18-5, Doses [Carcinogen]: 200 MG/KG ONCE, Doses [Promoter]: 0, 1% IN DIET BEGINNING 1 WK POST CARCINOGEN DOSE (STUDY DURATION: 60 WK), Route [Carcinogen]: INTRAPERITONEAL, Route [Promoter]: ORAL, Species: RAT, Strain/Sex: F344/MALE", "value": "liver: hepatocellular carcinoma"}, {"measurement": "outcome", "setting": "Carcinogen: DIETHYLNITROSAMINE, 55-18-5, Doses [Carcinogen]: 200 MG/KG ONCE, Doses [Promoter]: 0, 1% IN DIET BEGINNING 5 WK POST CARCINOGEN DOSE (STUDY DURATION: 60 WK), Route [Carcinogen]: INTRAPERITONEAL, Route [Promoter]: ORAL, Species: RAT, Strain/Sex: F344/MALE", "value": "liver: hepatocellular carcinoma"}, {"measurement": "outcome", "setting": "Carcinogen: N-NITROSO(2-HYDROXYPROPYL)(2-OXOPROPYL)AMINE, 61499-28-3, Doses [Carcinogen]: 170 MG/KG (TOTAL DOSE) ADMINISTERED CONTINUOUSLY OVER 9 D VIA OSMOTIC PUMP, Doses [Promoter]: 0, 1% IN DIET BEGINNING 2 WK POST CARCINOGEN TREATMENT AND CONTINUING FOR DURATION OF STUDY (STUDY DURATION: 29 WK), Route [Carcinogen]: SUBCUTANEOUS IMPLANT, Route [Promoter]: ORAL, Species: HAMSTER, Strain/Sex: SYRIAN/FEMALE", "value": "pancreas: papillary adenocarcinoma, carcinoma in situ"}, {"measurement": "outcome", "setting": "Carcinogen: N-NITROSO(2-HYDROXYPROPYL)(2-OXOPROPYL)AMINE, 61499-28-3, Doses [Carcinogen]: 170 MG/KG (TOTAL DOSE) INFUSED CONTINUOUSLY FOR 9 D, Doses [Promoter]: 0, 1% IN DIET FOR DURATION OF STUDY BEGINNING 2 WK POST CARCINOGEN TREATMENT (STUDY DURATION: 28 WK), Route [Carcinogen]: SUBCUTANEOUS, Route [Promoter]: ORAL, Species: HAMSTER, Strain/Sex: SYRIAN/FEMALE", "value": "pancreas: carcinoma in situ, adenocarcinoma"}, {"measurement": "outcome", "setting": "Carcinogen: N-NITROSO(2-HYDROXYPROPYL)(2-OXOPROPYL)AMINE, 61499-28-3, Doses [Carcinogen]: 400 MG/KG (TOTAL DOSE) ADMINISTERED CONTINUOUSLY BY OSMOTIC PUMP FOR 14 D, Doses [Promoter]: 0, 1% IN DIET FOR 15 WK BEGINNING 2 WK PRIOR TO CARCINOGEN TREATMENT (STUDY DURATION: 29 WK), Route [Carcinogen]: SUBCUTANEOUS, Route [Promoter]: ORAL, Species: RAT, Strain/Sex: SPRAGUE-DAWLEY/MALE", "value": "kidney: tumor; lung: adenoma"}, {"measurement": "outcome", "setting": "Carcinogen: N-NITROSO(2-HYDROXYPROPYL)(2-OXOPROPYL)AMINE, 61499-28-3, Doses [Carcinogen]: 400 MG/KG VIA OSMOTIC PUMP CONTINUOUSLY FOR 14 D, Doses [Promoter]: 0, 1% IN DIET 2 WK PRIOR TO AND 13 WK POST CARCINOGEN TREATMENT (STUDY DURATION: 27 WK), Route [Carcinogen]: SUBCUTANEOUS, Route [Promoter]: ORAL, Species: RAT, Strain/Sex: CD-1/MALE", "value": "kidney: tumor; lung: adenoma"}]}
{"compound": "CN(C)c1ncnc2nc[nH]c12", "values": [{"measurement": "outcome", "setting": "Carcinogen: DIETHYLNITROSAMINE, 55-18-5, 2-ACETYLAMINOFLUORENE, 53-96-3, CARBON TETRACHLORIDE, 56-23-5, Carcinogen: DIETHYLNITROSAMINE, 55-18-5, 2-ACETYLAMINOFLUORENE, 53-96-3, CARBON TETRACHLORIDE, 56-23-5, Doses [Carcinogen]: 200 MG/KG BW ONCE FOLLOWED 2 WK LATER BY 0.03% 2-ACETYLAMINOFLUORENE IN DIET FOR 2 WK PLUS 2 ML/KG CARBON TETRACHLORIDE, Doses [Promoter]: 0, 0.015% IN DIET FOR 21 WK BEGINNING AT END OF INITIATION PHASE (STUDY DURATION: 25 WK), Route [Carcinogen]: INTRAPERITONEAL, ORAL, Route [Carcinogen]: INTRAPERITONEAL, ORAL, Route [Promoter]: ORAL, Species: RAT, Strain/Sex: WISTAR/MALE", "value": "liver: hepatocellular carcinoma"}, {"measurement": "outcome", "setting": "Carcinogen: DIETHYLNITROSAMINE, 55-18-5, Doses [Carcinogen]: 200 MG/KG BW ONCE, Doses [Promoter]: 0, 0.005, 0.02% IN DIET FOR 23 WK BEGINNING 2 WK POST CARCINOGEN TREATMENT (STUDY DURATION: 25 WK), Doses [Promoter]: 0, 0.005, 0.02% IN DIET FOR 23 WK BEGINNING 2 WK POST CARCINOGEN TREATMENT (STUDY DURATION: 25 WK), Route [Carcinogen]: INTRAPERITONEAL, Route [Promoter]: ORAL, Species: RAT, Strain/Sex: WISTAR/MALE", "value": "liver: hepatocellular carcinoma"}]}
{"compound": "c1c[nH]cn1", "values": [{"measurement": "outcome", "setting": "Carcinogen: N-METHYL-N-NITROSOUREA, 684-93-5, Doses [Carcinogen]: 40 MG/KG ONCE, Doses [Promoter]: 1000 MG/KG OF HIGH (20%) FAT DIET BEGINNING 1 WK POST CARCINOGEN DOSE AND CONTINUING FOR DURATION OF STUDY (STUDY DURATI, Route [Carcinogen]: SUBCUTANEOUS, Route [Promoter]: ORAL, Species: RAT, Strain/Sex: SPRAGUE-DAWLEY/FEMALE", "value": "mammary gland: tumor"}]}
{"compound": "CC(C)(C)NC(=O)[C@H]1CC[C@H]2[C@@H]3CC=C4C=C(C(=O)O)CC[C@]4(C)[C@H]3CC[C@]12C", "values": [{"measurement": "outcome", "setting": "Carcinogen: 3,2'-DIMETHYL-4-AMINOBIPHENYL, 13394-86-0, Doses [Carcinogen]: 50 MG/KG BW ONCE/2 WK FOR FIRST 20 WK, Doses [Promoter]: 0, 10, 50 MG/KG BW BY GAVAGE 3X/WK FOR 40 WK BEGINNING 20 WK POST CARCINOGEN TREATMENT (STUDY DURATION: 60 WK), Doses [Promoter]: 0, 10, 50 MG/KG BW BY GAVAGE 3X/WK FOR 40 WK BEGINNING 20 WK POST CARCINOGEN TREATMENT (STUDY DURATION: 60 WK), Route [Carcinogen]: SUBCUTANEOUS, Route [Promoter]: ORAL, Species: RAT, Strain/Sex: F344/MALE", "value": "prostate (ventral): adenocarcinoma"}]}
{"compound": "CC(C)(C)c1ccc(O)c(O)c1", "values": [{"measurement": "outcome", "setting": "Carcinogen: N-METHYL-N'-NITRO-N-NITROSOGUANIDINE, 70-25-7, Doses [Carcinogen]: 150 MG/KG IN DMSO ONCE, Doses [Promoter]: 0, 1.5% IN DIET FOR 51 WK BEGINNING 1 WK AFTER CARCINOGEN DOSE (STUDY DURATION: 52 WK), Route [Carcinogen]: GAVAGE, Route [Promoter]: ORAL, Species: RAT, Strain/Sex: F344/MALE", "value": "forestomach: squamous cell carcinoma"}]}
{"compound": "O=[As]O", "values": [{"measurement": "outcome", "setting": "Carcinogen: UV RADIATION 3X A WK FOR 6 MO STARTING 3 WKS AFTER ARSENITE, Doses [Promoter]: 5.0 MG/L STARTING AT 3 WKS OF AGE (STUDY DURATION: 28 WKS), Route [Carcinogen]: DERMAL, Route [Promoter]: DRINKING WATER, Species: MOUSE, Strain/Sex: CRL:SK1-HRBD (HAIRLESS)/FEMALE", "value": "skin: 3.6 tumors/mouse uv alone; 7.0 tumors/mouse uv and arsenite"}, {"measurement": "outcome", "setting": "Carcinogen: UV-B IRRADIATION (WESTINGHOUSE SOLAR FS-20 LAMP 85% IN 290-320 NM RANGE), Doses [Carcinogen]: 1.7 KJ/SQ M 3/WK FOR 182 D BEGINNING 3 WK POST PROMOTER FIRST DOSE, Doses [Promoter]: 0, 10 MG/L IN DRINKING WATER BEGINNING AT 21 D AFTER BIRTH (STUDY DURATION: 203 D), Route [Carcinogen]: DERMAL, Route [Promoter]: ORAL, Species: MOUSE, Strain/Sex: SKH/FEMALE", "value": "skin: squamous cell carcinoma"}]}
